Target: T1, rNFOR (Mhp NFOR, NADH-dependent flavin oxidoreductase) (Mesomycoplasma hyopneumoniae, UniProt E4QSY0)
T1 construct: gene baiH; 44 kDa on gel
Test: NADH oxidation
Type: biochemical
Settings: 0.5 mM NADH, 10 uM FMN (5 min preincubation), 0.1 M potassium phosphate pH 7.5, 1 mM DTT, 25 C

T1 sequence (E4QSY0 entry or part of it): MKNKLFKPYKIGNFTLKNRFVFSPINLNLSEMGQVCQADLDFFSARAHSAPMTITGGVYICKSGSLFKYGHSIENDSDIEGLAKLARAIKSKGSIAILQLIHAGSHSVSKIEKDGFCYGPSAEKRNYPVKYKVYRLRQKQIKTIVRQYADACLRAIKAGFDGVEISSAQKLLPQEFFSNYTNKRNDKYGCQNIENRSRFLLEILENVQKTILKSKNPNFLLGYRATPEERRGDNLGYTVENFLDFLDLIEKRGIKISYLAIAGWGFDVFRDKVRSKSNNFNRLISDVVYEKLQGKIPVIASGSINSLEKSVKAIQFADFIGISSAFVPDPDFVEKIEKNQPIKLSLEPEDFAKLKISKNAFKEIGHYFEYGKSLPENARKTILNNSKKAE

NC(=O)C1=CN([C@@H]2O[C@H](COP(=O)(O)OP(=O)(O)OC[C@H]3O[C@@H](n4cnc5c(N)ncnc54)[C@H](O)[C@@H]3O)[C@@H](O)[C@H]2O)C=CC1 [NADH]
NADH oxidation, absorbance at 340 nm: enzymatic activity of purified rNFOR was determined by calculating the oxidation of NADH to NAD^+

From paper PMC8521518, “Nicotinamide Adenine Dinucleotide-Dependent Flavin Oxidoreductase of Mycoplasma hyopneumoniae Functions as a Potential Novel Virulence Factor and Not Only as a Metabolic Enzyme” (Frontiers in Microbiology, 2021)
